Results on 3 compounds are retold here after patent US20030096004A1, “(S,S'),(S,R')-amphetaminil, compositions and uses thereof” (priority 2001, published 2003).

Where only a bound is given, the exact number is not on record here.

In assay [1] the test system is normal rats. The assay can be described thus: Locomotor activity in normal rats (grid line crossings). Particulars: for locomotor activity (overall effect): male Wistar rats, all doses tested; for cumulative locomotor activity: vs vehicle. The class given is in vivo, rat. On the procedure: (§1) Male Wistar rats (n=4 per group) were randomly allocated to each drug treatment group. Drugs were administered such that, with the exception of fusaric acid, each rat in each group received all doses of the drug or vehicle in a semi random manner according to the modified Latin Square in Table 1. Compounds were administered at the doses: 0.1, 1 and 10 mg/kg s.c. in 100% DMS0 (vehicle). Amphetamine was administered at 0.1, 1 and 5 mg/kg s.c. in saline (vehicle). Fusaric acid was administered at 20, 40 and 80 mg/kg s.c. in saline (vehicle). Rats received each dose of fusaric acid (20, 40 and 80 mg/kg), doses given in order, starting with vehicle. A one-week interval was provided between doses.
(§2) At the start of the experiment, rats were placed in standard perspex behaviour boxes with a visible grid on the floor to allow determination of locomotor activity. The animals were allowed to acclimatise to their environment for 1 hour prior to drug/saline administration. Following drug administration animals were returned to the behaviour cages and locomotor activity was assessed for a further 5 hours or until baseline (zero activity for 30 minutes) was achieved, whichever was sooner. Locomotor activity was assessed by videoing the rats throughout the experiment, and counting the number of times a rat crossed a grid line during a period of 5 minutes every 10 minutes. Throughout the experiment animals were scored for stereotyped behaviours for 15 seconds every 10 minutes by a trained observer using the scoring methods described in Table 2.
The mean and standard error for locomotor activity over 10 minutes for each rat at each time point was determined. […] Cumulative activity, during the 300 min was also calculated, and the effect of dose of drug was analyzed by one-way repeated measures ANOVA followed by Dunnett's t-test (GraphPad Prizm). Data was also analysed for significant fit to a sigmoidal-shaped log dose-response curve using non-linear regression analysis (GraphPad Prizm).

For assay [2], the system named is normal rats. In words: Induction of stereotyped behaviour in normal rats (stereotypy scoring). The class given is in vivo, rat. Particulars: for duration of stereotypy: 300 min experiment; for stereotypy (overall effect): male Wistar rats, all doses tested; for stereotypy (overall effect) / onset of stereotypy: s.c.; for onset of stereotypy: 10 mg/kg stated for (S,S′),(S,R′)-amphetaminil; for differences in overall stereotypy between groups: total stereotypy score, 0.1-10 mg/kg s.c. vs vehicle. As to the method:
as §1, §2
The mean and standard error for stereotypy activity for 15 seconds every 10 minutes for each rat at each time point was determined. […] Cumulative activity during the 300 min was also calculated, and the effect of dose of drug was analyzed by Kruskall Wallis one-way ANOVA (GraphPad Prizm). Data was also analysed for significant fit to a sigmoidal-shaped log dose-response curve using non-linear regression analysis (GraphPad Prizm)

Assay [3] has as its system children with hyperkinetic syndrome. Particulars: Pacit et al., 1996; cited from earlier work.

For `CC(Cc1ccccc1)NC(C#N)c1ccccc1` (racemic) [Racemic amphetaminil, alpha-[(1-methyl-2-phenylethyl)amino]benzeneacetonitrile], in the assay with normal rats [1] (s.c.), the “locomotor activity (overall effect)” value is “increased locomotor activity only at the highest dose of 10 mg/kg”. Further, the duration of stereotypy entry in the assay with normal rats [2] (10 mg/kg s.c.) is listed as “sustained for the duration of the experiment”. Besides, in the assay on normal rats [2], the “stereotypy (overall effect)” value is reported as “increased stereotypy in a log dose-related manner”, the onset of stereotypy entry was “rapid” and the “differences in overall stereotypy between groups” value is on record as “did not reach statistical significance”. The “efficacy in the treatment of ADHD in children” value in assay [3] was “efficacy”.
On to `C[C@@H](Cc1ccccc1)NC(C#N)c1ccccc1` (stereo partly drawn) [(S,S′),(S,R′)-Amphetaminil, alpha-[(1S-Methyl-2-phenylethyl)amino]benzeneacetonitrile], for which the “share of the racemate's pharmacological activity, cumulative locomotor activity (FIGS. 3B and 4B)” value in the assay with normal rats [1] (1 mg/kg) is reported as “responsible for nearly all of the pharmacological activity of the racemate”. Besides, the cumulative locomotor activity result in the assay with normal rats [1] (10 mg/kg s.c.) is listed as “significant effect”. In addition, in the assay on normal rats [1] (s.c.), the “locomotor activity (overall effect)” value is “increased locomotor activity in a dose-related manner”, the “onset of locomotor activity after administration” value is at most 30 min and the “peak of locomotor activity” value was found to be 60 min. In addition, the “share of the racemate's pharmacological activity, total stereotypy score (FIGS. 7B and 8B)” value with normal rats [2] (1 mg/kg) was “responsible for nearly all of the pharmacological activity of the racemate”. For the same compound, in the assay with normal rats [2] (10 mg/kg s.c.), the peak of stereotypy is recorded as 100 min and the duration of stereotypy entry is listed as “sustained during the 300 min duration of the experiment”. In addition, in the assay with normal rats [2], the “stereotypy (overall effect)” value is reported as “increased stereotypy in a log dose-related manner”, the onset of stereotypy entry is “rapid” and the “differences in overall stereotypy between groups” value is “did not reach statistical significance”.
Regarding `CC(N)Cc1ccccc1` (centres unmarked) [Amphetamine], in the assay on normal rats [1] (5 mg/kg s.c.), the “onset of locomotor activity” value is recorded as “rapid” and the “time of maximum effect on locomotor activity after administration” value was 30 min. In addition, the cumulative locomotor activity entry in the assay on normal rats [1] (5 mg/kg s.c., over the duration of the experiment) is recorded as “significantly increased”. In the assay with normal rats [1] (s.c.), the “locomotor activity (overall effect)” value is “dose-related increase in locomotor activity”. Further, the “overall stereotypy during the 300 min duration of the experiment” value in the assay on normal rats [2] (5 mg/kg s.c.) was “tended to increase”. Further, the “stereotypy (overall effect)” value in the assay with normal rats [2] is listed as “log dose-related increase stereotypy”.
